Laboratory results reported in patent publication US20180221336A1, “DOSE SPARING KETOROLAC FORMULATIONS AND METHODS AND DEVICES FOR USE WITH SAME” (SteadyMed, Ltd., priority 2017, published 2018).
Like-named read-outs stand apart in the source and are kept apart here.

Legend:
[1] = Simulation of plasma Ketorolac concentrations with the MMSPK population pharmacokinetic model (NONMEM); set-up: species or system human; details: population PK model parameter estimate
Excerpt: A modified version of the Mandema-Stanski published model for Ketorolac (termed the Modified Mandema-Stanski PK model, or the MMSPK Model) was developed in steps; a base model development step for description of structural components of the model followed by a covariate analysis. For the latter the base model output was used to conduct a graphical evaluation of the covariates at first. A full model including all relevant covariate effects (e.g. each covariate-parameter relationship which was significant during single covariate model testing was included in the full model) was then developed. A final model was chosen by retaining only the statistically significant covariate effects. The parameters in the population models were estimated using the NONMEM software program (version 7.3). The stochastic approximation estimation method (SAEM) was used for estimation. A visual predictive check (VPC) was conducted for the model using all data.
Simulations: Once the model was qualified, stochastic simulations were conducted to assess the expected range of concentrations following several dose regimens. […]
For each simulation scenario 800 subjects were simulated. […] The simulation outputs were assessed graphically and summaries of key metrics (see Table 1) were summarized and tabled. […]

[2] = Safety assessments (adverse events, vital signs, ECG, injection/infusion site) in the crossover study in healthy subjects
Description: Twelve (12) subjects were randomized to receive a total daily dose of 120 mg Ketorolac tromethamine (Ketorolac Tromethamine Injection, USP 30 mg/mL, manufactured by Hospira Inc., Lot No.: 51600LL) administered as either: (Treatment A) one continuous SC infusion of 4 mL to the abdomen over 24 hours at a steady rate of 5 mg/hr (0.167 mL/hr), or (Treatment B) four IM bolus injections of 30 mg (1 mL) to alternating gluteus maximus muscle every 6 hours. For the continuous SC infusion, the MedFusion 3500 syringe pump was assembled with Animas Inset Infusion Set 23 inch 6 mm 10/box Grey (100-182-00), B-D Luer-Lok Syringe 5 mL and B-D 20 G 1 inch needle (Becton Dickinson). The treatments were separated by a washout period of ≥4 days.
All subjects underwent pre-dose (each period) and post-study assessments including physical examinations, routine laboratory tests, vital signs, and 12-lead electrocardiograms (ECGs). Alcohol and drug screen were conducted before each dosing period. All subjects were between 19 and 55 years old with a body mass index (BMI) between 18.5 and 30.0 kg/m2. Subjects had to refrain from the use of any prescription medications including over-the-counter products, herbal products or vitamin supplement within 14 days of dosing.

[3] = for plasma Ketorolac concentration (predose Ctrough), Geometric LSM: Treatment B four IM bolus injections every 6 hours
Description: (§1) Twelve (12) subjects were randomized to receive a total daily dose of 120 mg Ketorolac tromethamine (Ketorolac Tromethamine Injection, USP 30 mg/mL, manufactured by Hospira Inc., Lot No.: 51600LL) administered as either: (Treatment A) one continuous SC infusion of 4 mL to the abdomen over 24 hours at a steady rate of 5 mg/hr (0.167 mL/hr), or (Treatment B) four IM bolus injections of 30 mg (1 mL) to alternating gluteus maximus muscle every 6 hours. […] The treatments were separated by a washout period of ≥4 days. The total daily dose of 120 mg Ketorolac tromethamine administered as 4×30 mg/mL IM bolus injections is a recommended treatment for subjects under 65 years of age according to the product labeling.
(§2) Blood samples for the determination of plasma Ketorolac following continuous SC infusion (Treatment A) were collected at the following time points: pre-dose (0 hour), 0.25, 0.5, 1, 1.5, 2, 4, 6, 8, 10, 12, 14, 16, 18, 20, 22, 23, 24 (2 blood samples were collected at the 24 hour time point; 1 immediately prior to the end of infusion and 1 immediately following end of infusion), 24.167, 24.33, 24.5, 25, 26, 28, 30, 32, 36, and at 48 hours post-dose. The time for post-dose blood collection are expressed relative to the start of infusion.
(§3) Blood samples for the determination of plasma Ketorolac following IM injections (Treatment B) were collected at the following time points: pre-dose (0 hour), 0.167, 0.25, 0.5, 0.75, 1, 1.25, 1.5, 2, 3, 4, 6 (pre-dose), 6.25, 6.5, 6.75, 7, 8, 10, 12 (pre-dose), 12.25, 12.75, 13, 14, 16, 18 (pre-dose), 18.25, 18.5, 18.75, 19, 20, 22, 24, 28, 32, and at 48 hours post-dose. The time for post-dose blood collection are expressed relative to the first IM injection.
(§4) Ketorolac plasma concentrations were determined using a validated liquid chromatographic tandem mass spectrometry (LC-MS/MS) method, with a lower limit of quantitation (LLOQ) of 10.0 ng/mL9. The validated plasma Ketorolac concentration range was 10.0 to 5000 ng/mL. Assay performance was monitored using quality control (QC) samples at concentrations of 30.0 ng/mL, 200 ng/mL, and 3800 ng/mL; the % CV for the QCs ranged from 1.3% to 15.1% and accuracy was 91.6-102.5%.
(§5) Non-compartmental PK parameters were calculated from Ketorolac concentrations-time data in plasma using Phoenix® WinNonlin® Professional (Versions 6.3; Pharsight, Mountain View, Calif.). […] AUC0-inf was calculated as the sum AUC0-last plus the ratio of the last measurable plasma concentration (Clast) to kel; AUC0-last, AUC0-24, and AUCtau were calculated by the linear trapezoidal summation method; AUCext was calculated as 1-AUC0-last/AUC0-inf multiplied by 100, Cmax, Ctrough, tmax were reported as observed values; Cavg was calculated as AUCtau divided by 6 hours for the IM administration; Css was calculated as the average of the concentrations from the time steady-state was reached until the end of SC infusion; CL/F was calculated as dose/AUC0-inf (for SC administration) or dose/AUCtau (for IM administration); Vz/F was calculated as (CL/F)/kel); kel was calculated by linear least-square regression analysis using the maximum number of points in the terminal log-linear phase (using 3 or more non-zero plasma concentrations); t½ was calculated as ln(2)/kel.
(§6) Statistical analyses were conducted to compare Ketorolac AUC0 24, AUC0 last, and Cmax following continuous SC infusion and repeat IM bolus injections. A SAS® mixed model procedure was performed on the natural log (ln)-transformed PK parameters.

clinical = details: human, plasma
Description: as §1, §2, §3, §4, §5, §6

[4] = oral KT; literature value used in simulations; cited from earlier work
[5] = Treatment A (Test, N = 11): continuous SC infusion over 24 hours
[6] = Treatment A versus Treatment B, 100 * (test/reference)
[7] = Treatment A: 120 mg continuous SC infusion over 24 hours, N = 11, geom. mean (geom. CV %)
[8] = Treatment A: 120 mg continuous SC infusion over 24 hours, N = 11, mean ± SD
[9] = Treatment A, individual spline (quadratic plateau) regression, N 11
[10] = Treatment A, individual spline (quadratic plateau) regression, N 11, listed as Ketorolac tromethamine
[11] = Treatment B (Reference, N = 12): four IM bolus injections of 30 mg every 6 hours

What does the source list for O=C(c1ccccc1)c1ccc2n1CCC2C(=O)O (racemic) [Ketorolac, (±)-5-benzoyl-2,3-dihydro-1H-pyrrolizine-1-carboxylic acid, compound with 2-amino-2-(hydroxymethyl)-1,3-propanediol]?
CL estimate (MMSPK model) [1]: 2.92 L/h; estimated Ka for IM absorption (MMSPK model) [1]: 11.6 h⁻¹; infusion site adverse event ([2]; Treatment A, 13 minutes following completion of the 24-hour infusion, resolved in approximately 2 days, possibly related to study drug): One subject experienced mild infusion site pain; injection site adverse event ([2]; Treatment B, approximately 6.5 hours after the 4th IM injection, resolved in 15 days, not related to study drug): Another subject experienced mild injection site hemorrhage; subjects experiencing TEAEs following each treatment arm ([2]; each of Treatment A and Treatment B): 2 subjects; safety and tolerability ([2]; total dose of 120 mg via continuous SC infusion): safe and well tolerated; vital sign, ECG, or injection/infusion site reaction results ([2]; whole study): no clinically significant trends; subjects experiencing TEAEs ([2]; whole study, 12 subjects): 4 (33%) subjects; deaths or serious adverse events (SAEs) ([2]; whole study, both treatments): no deaths or serious adverse events (SAEs); number of mild treatment emergent adverse events (TEAEs) ([2]; whole study, both treatments): 7; AUC0-24 Geometric LSM [3, 5]: 21510 ng·h/mL; AUC0-last Geometric LSM [3, 5]: 28260 ng·h/mL; overall Tss (time to steady-state) ([3]; Treatment A SC infusion, Helmert contrast): 18 h; overall exposure (AUC0-24 and AUC0-last), SC infusion compared with IM bolus injections ([3]; Treatment A versus Treatment B): similar; Cmax lower following continuous SC infusion compared to 4 IM bolus injections ([3]; Treatment A versus Treatment B, 120 mg total daily dose): 40%; AUC0-24 Geometric Mean Ratio [3, 6]: 91.23%; AUC0-last Geometric Mean Ratio [3, 6]: 101.53%; Cmax—all Geometric Mean Ratio [3, 6]: 59.86%; AUC0-last [3, 7]: 28.48 (30.9) μg * hr/mL; Cmax—all [3, 7]: 1.344 (25.6) μg/mL; AUC%extrap [3, 8]: 1.96 ± 1.2860%; Css [3, 8]: 1238 ± 299.6 ng/mL; Kel ([3]; Treatment A: 120 mg continuous SC infusion over 24 hours, mean ± SD): 0.1014 ± 0.01213 h⁻¹; CL/F ([3]; Treatment A: 120 mg continuous SC infusion over 24 hours, mean ± SD, listed as Ketorolac tromethamine): 2.924 ± 0.9799 L/h; Plateau Concentration, Mean (SD) [3, 9]: 1053 (234.5) ng/mL; Plateau Concentration, Median (Min, Max) [3, 9]: 1084 ng/mL; Time to Steady-State, Mean (SD) [3, 9]: 6.30 (4.17) hr; Time to Steady-State, Median (Min, Max) [3, 9]: 4 h; Plateau Concentration, Median (Min, Max) [3, 10]: 1084 (572.4, 1426) ng/mL; Time to Steady-State, Median (Min, Max) [3, 10]: 3.68 (1.98, 13.63) hr; AUC0-24 Geometric LSM [3, 11]: 23580 ng·h/mL; AUC0-last Geometric LSM [3, 11]: 27830 ng·h/mL; plasma Ketorolac concentration (predose Ctrough), Geometric LSM ([3]; Hour 6): 302.545; plasma Ketorolac concentration (predose Ctrough), Geometric LSM ([3]; Hour 12): 368.216; plasma Ketorolac concentration (predose Ctrough), Geometric LSM ([3]; Hour 18): 432.393; plasma Ketorolac concentration (predose Ctrough), Geometric LSM ([3]; Hour 24): 564.178; Ctrough (LSM) at the highest ([3]; following IM injections (Treatment B)): 564.2 ng/mL; Individual Tss (spline method), range ([3]; following SC infusion (Treatment A)): 2.0 to 14 h; geometric LSM Css ([3]; following SC infusion (Treatment A), Helmert contrast): 1160 ng/mL; half-life (clinical; 120 mg): ~7 h; AUC (clinical; im, 30 mg): 6810 ng·h/mL; AUC(0-t) (clinical; im, 30 mg): 23600 ng·h/mL; Cmax (clinical; im, 30 mg): 2240 ng/mL; Tmax (clinical; im, 30 mg): 9.25 h; Vd/F (clinical; im, 30 mg): 30.3 ± 7.69 L; half-life (clinical; im, 30 mg): 7.02 ± 1.44 h; AUC(0-inf) (clinical; sc, 120 mg): 29100 ng·h/mL; AUC(0-t) (clinical; sc, 120 mg): 21500 ng·h/mL; Cmax (clinical; sc, 120 mg): 1340 ng/mL; Tmax (clinical; sc, 120 mg): 23 h; Vd/F (clinical; sc, 120 mg): 29.1 ± 10.9 L; concentration at 4 h (clinical; sc, 120 mg): 617 ng/mL; concentration at 6 h (clinical; sc, 120 mg): 718 ng/mL; concentration at 8 h (clinical; sc, 120 mg): 838 ng/mL; concentration at 10 h (clinical; sc, 120 mg): 894 ng/mL; concentration at 12 h (clinical; sc, 120 mg): 946 ng/mL; concentration at 14 h (clinical; sc, 120 mg): 1020 ng/mL; concentration at 16 h (clinical; sc, 120 mg): 1050 ng/mL; concentration at 18 h (clinical; sc, 120 mg): 1160 ng/mL; concentration at 20 h (clinical; sc, 120 mg): 1210 ng/mL; concentration at 22 h (clinical; sc, 120 mg): 1200 ng/mL; concentration at 23 h (clinical; sc, 120 mg): 1230 ng/mL; concentration at 24 h (clinical; sc, 120 mg): 1170 ng/mL; half-life (clinical; sc, 120 mg): 6.93 ± 0.84 h; Ka [4]: 11 h⁻¹; absorption lag time [4]: 0.2 h
